Results on one compound are retold here after ChEMBL document CHEMBL4359901, “Cyclic enaminone as new chemotype for selective cyclooxygenase-2 inhibitory, anti-inflammatory, and analgesic activities” (Eur J Med Chem, 2019).

Structures are written as SMILES.

This assay deals with Rattus norvegicus. Nature of the assay: Antiinflammatory activity in Sprague-Dawley rat model of carrageenan-induced thermal hyperalgesia assessed as paw withdrawal latency pressure at 30 mg/kg, po administered 1 hr prior to carrageenan challenge and measured after 1 hr by Randall-Selitto test (reference value: 246.55 +/- 1.05 g). It is filed as functional.

For `CC(=O)N(C1=CC(=O)CCC1)c1ccc(Cl)cc1`, the Activity is recorded as 261.72 g.
